22 compounds from ChEMBL document CHEMBL1125536, “Studies on neurokinin antagonists. 2. Design and structure-activity relationships of novel tripeptide substance P antagonists, N alpha-[N alpha-(N alpha-acetyl-L-threonyl)-N1-formyl-D-tryptophyl]-N- methyl-N-(phenylmethyl)-L-phenylalaninamide and its related compounds” (J Med Chem, 1992) can be followed below.

Square brackets hold non-standard residues; d marks the D form. Peptide text beside a SMILES is read from it. * marks the point of attachment. Boc = CC(C)(C)OC(=O)*; OBn = c1ccc(CO*)cc1; For = O=C*

A short description of experiment [1]: Inhibition of [3H]SP binding to guinea pig lung membranes.
For experiment [2], the target named is Substance-P receptor (Cavia porcellus, UniProt P30547). The experiment in a line: Compound was tested for the inhibition of [3H]SP binding to guinea pig lung membranes; Not active.
Chain of Substance-P receptor (P30547 whole entry): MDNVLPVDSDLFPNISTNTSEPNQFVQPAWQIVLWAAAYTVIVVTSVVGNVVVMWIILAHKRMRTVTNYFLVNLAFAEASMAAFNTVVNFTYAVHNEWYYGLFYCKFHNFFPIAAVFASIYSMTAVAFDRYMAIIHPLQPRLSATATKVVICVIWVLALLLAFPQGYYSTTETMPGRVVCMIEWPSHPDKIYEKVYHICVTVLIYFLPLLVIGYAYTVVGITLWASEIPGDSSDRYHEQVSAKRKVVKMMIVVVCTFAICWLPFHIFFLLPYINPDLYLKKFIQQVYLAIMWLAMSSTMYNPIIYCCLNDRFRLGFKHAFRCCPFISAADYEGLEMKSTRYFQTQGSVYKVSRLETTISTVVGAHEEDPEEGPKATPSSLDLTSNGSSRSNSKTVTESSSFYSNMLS
The species entered for experiment [3] is Cavia porcellus. Nature of the experiment: Compound was tested for the inhibition of SP-induced contraction of isolated guinea pig trachea strips. Type of experiment: functional.

In the case of `CC(O)C(NC(=O)N1CCOCC1)C(=O)N[C@H](Cc1cn(C=O)c2ccccc12)C(=O)N[C@@H](Cc1ccccc1)C(=O)N(C)Cc1ccccc1` (stereo partly drawn), the IC50 (in general, the concentration needed to halve the response being measured) in experiment [1] worked out at 20 nM. This lies in the double-digit nanomolar range. `CC(O)C(NC(=O)CCCC(=O)O)C(=O)N[C@H](Cc1cn(C=O)c2ccccc12)C(=O)N[C@@H](Cc1ccccc1)C(=O)N(C)Cc1ccccc1` (stereo partly drawn): the IC50 entry in experiment [2] is recorded as “Not Active”. In turn, `CC(O)C(C(=O)N[C@H](Cc1cn(C=O)c2ccccc12)C(=O)N[C@@H](Cc1ccccc1)C(=O)N(C)Cc1ccccc1)N(C)C(=O)OC(C)(C)C` (stereo partly drawn) showed a half-inhibitory concentration (IC50) in experiment [1] of 290 nM.

Consider `CC(C)(C)OC(=O)N[C@@H](CCC(N)=O)C(=O)N[C@H](Cc1cn(C=O)c2ccccc12)C(=O)N[C@@H](Cc1ccccc1)C(=O)NCc1ccccc1`, for which the IC50 in experiment [1] was found to be 860 nM. The same measure, in the same setting: then `CC(=O)NC(CCC(=O)N(C)C)C(=O)N[C@H](Cc1cn(C=O)c2ccccc12)C(=O)N[C@@H](Cc1ccccc1)C(=O)N(C)Cc1ccccc1` (stereo partly drawn), with 30 nM.

In experiment [1], `C[C@@H](O)[C@H](NC(=O)CN)C(=O)N[C@H](Cc1cn(C=O)c2ccccc12)C(=O)N[C@@H](Cc1ccccc1)C(=O)N(C)Cc1ccccc1` registered an IC50 of 230 nM.

In experiment [1], `CC(O)C(NC(=O)CO)C(=O)N[C@H](Cc1cn(C=O)c2ccccc12)C(=O)N[C@@H](Cc1ccccc1)C(=O)N(C)Cc1ccccc1` (stereo partly drawn) registered an IC50 of 20 nM. This IC50 is about 12-fold lower than that of the compound before. Take `CC(=O)NC(C(=O)N[C@H](Cc1cn(C=O)c2ccccc12)C(=O)N[C@@H](Cc1ccccc1)C(=O)N(C)Cc1ccccc1)C(C)O` (stereo partly drawn): the IC50 in experiment [3] is 2300 nM; in experiment [1], 5.8 nM. In turn, `CN(Cc1ccccc1)C(=O)[C@H](Cc1ccccc1)NC(=O)[C@@H](Cc1cn(C=O)c2ccccc12)NC(=O)CC(NC(=O)OC(C)(C)C)C(N)=O` (stereo partly drawn) registered a concentration for half-maximal inhibition (IC50) in experiment [1] of 180 nM.

In experiment [1], `CN(C)C(=O)CCC(NC(=O)OC(C)(C)C)C(=O)N[C@H](Cc1cn(C=O)c2ccccc12)C(=O)N[C@@H](Cc1ccccc1)C(=O)N(C)Cc1ccccc1` (stereo partly drawn) had an IC50 of 40 nM. Turning to `CC(C)(C)OC(=O)N[C@@H](CCC(N)=O)C(=O)N[C@H](Cc1cn(C=O)c2ccccc12)C(=O)N[C@@H](Cc1ccccc1)C(=O)CCc1ccccc1`, the IC50 in experiment [1] is 430 nM. For `CC(O)C(NC(=O)CCC(=O)O)C(=O)N[C@H](Cc1cn(C=O)c2ccccc12)C(=O)N[C@@H](Cc1ccccc1)C(=O)N(C)Cc1ccccc1` (stereo partly drawn), the IC50 result in experiment [2] is reported as “Not Active”. Take `CN(Cc1ccccc1)C(=O)[C@H](Cc1ccccc1)NC(=O)[C@@H](Cc1cn(C=O)c2ccccc12)NC(=O)[C@H](CCC(N)=O)NC(=O)OC(C)(C)C`: in experiment [1], the IC50 is 48 nM. For the compound `CC(=O)NC(Cc1c[nH]cn1)C(=O)N[C@H](Cc1cn(C=O)c2ccccc12)C(=O)N[C@@H](Cc1ccccc1)C(=O)N(C)Cc1ccccc1` (stereo partly drawn), the IC50 in experiment [1] worked out at 100 nM.

As to `CN(Cc1ccccc1)C(=O)[C@H](Cc1ccccc1)NC(=O)[C@@H](Cc1cn(C=O)c2ccccc12)NC(=O)C(Cc1c[nH]cn1)NC(=O)OC(C)(C)C` (stereo partly drawn), in experiment [1], the IC50 was determined as 140 nM. Same read-out and setting: the figure for `CN(Cc1ccccc1)C(=O)[C@H](Cc1ccccc1)NC(=O)[C@@H](Cc1cn(C=O)c2ccccc12)NC(=O)C1CC(O)CN1C(=O)OC(C)(C)C` (stereo partly drawn) is 200 nM; for `CC(O)C(NC(=O)OC(C)(C)C)C(=O)N[C@H](Cc1cn(C=O)c2ccccc12)C(=O)N[C@@H](Cc1ccccc1)C(=O)N(C)Cc1ccccc1` (stereo partly drawn) it is 60 nM. Same read-out and setting: the figure for `CC(=O)NC(CO)C(=O)N[C@H](Cc1cn(C=O)c2ccccc12)C(=O)N[C@@H](Cc1ccccc1)C(=O)N(C)Cc1ccccc1` (stereo partly drawn) is 50 nM; for `CC(O)C(NC(=O)CCN)C(=O)N[C@H](Cc1cn(C=O)c2ccccc12)C(=O)N[C@@H](Cc1ccccc1)C(=O)N(C)Cc1ccccc1` (stereo partly drawn) it is 100 nM; for `CC(O)C(N)C(=O)N[C@H](Cc1cn(C=O)c2ccccc12)C(=O)N[C@@H](Cc1ccccc1)C(=O)N(C)Cc1ccccc1` (stereo partly drawn) it is 600 nM. The same measure, in the same setting: the figure for `CCN(CC)CCC(=O)NC(C(=O)N[C@H](Cc1cn(C=O)c2ccccc12)C(=O)N[C@@H](Cc1ccccc1)C(=O)N(C)Cc1ccccc1)C(C)O` (stereo partly drawn) is 20 nM; for `CC(C)(C)OC(=O)N[C@@H](CCC(N)=O)C(=O)N[C@H](Cc1cn(C=O)c2ccccc12)C(=O)N[C@@H](Cc1ccccc1)C(=O)OCc1ccccc1` (Boc-Gln-[dW](For)-Phe-OBn) it is 90 nM.
